Source: patent US20250082624A1, “METHODS OF TREATING COGNITIVE IMPAIRMENT” (NeuroTherapia, Inc., priority 2023, published 2025)
“Also recorded” adds a separate entry of the source. Like-named read-outs stand apart in the source and are kept apart here.

Assay: Phase 1b MAD plasma pharmacokinetics, non-compartmental analysis
Format: in vivo, human
From the text: Methods: All study procedures were approved by the IRB, and informed consent was obtained. Three cohorts of volunteers 45-80 years of age with well-controlled comorbidities (NOAD) and one cohort of AD patients diagnosed with cognitive impairment consistent with prodromal AD per International Working Group criteria or mild AD per National Institute on Aging—Alzheimer's Association criteria (n=6 active, 2 placebo per cohort) were enrolled. Participants were admitted to the study site for the duration of the dosing and returned 7-12 days after the last dose for a safety visit. Participants received NTRX-07 (10, 30, or 90 mg) or a placebo in a double-blinded randomization orally once daily for seven days. Subjects were assessed for changes in vital signs, including maneuvers to induce lightheadedness, electrocardiograms, 24-hour electroencephalograms (EEG), and safety laboratory studies. The second cohort returned and received a single repeat dose after a standard high-fat meal. The AD cohort also underwent cognitive testing and had blood samples for biomarkers drawn. Subjects had PK sampling done after the first and final dose of the study drug. An independent safety review committee conducted a blinded safety review of adverse events and plasma levels between each cohort.
All subjects had PK sampling done after the first and final dose of the study drug.
(§1) Raw bioanalytical data were received from Nuvisan following analysis of plasma samples from each of four cohorts. PK parameters were calculated by noncompartmental analysis using standard equations. Specifically, area under the plasma concentration versus time curve (AUC) was calculated using the trapezoid rule. Maximal plasma concentration (Cmax) and time of maximal plasma concentration (Tmax) were taken directly from the data. Clearance divided by bioavailability (Cl/F) was calculated as the dose divided by the AUC. Apparent volume of distribution over bioavailability (Vd/F) was calculated as dose divided by Cmax.
With oral administration of the dose every 24 hours for 7 days, blood samples were taken over a 24-hour interval on Days 1 and 7 and before and after dosing on Day 3.
as §1, with “on Oct. 27, 2022. […]” for “following analysis of plasma samples from each of four cohorts. PK parameters were calculated by noncompartmental analysis using standard equations.”
as §1, with “on Nov. 24, 2022. […]” for “following analysis of plasma samples from each of four cohorts. PK parameters were calculated by noncompartmental analysis using standard equations.”
as §1, with “on Dec. 19, 2022. […]” for “following analysis of plasma samples from each of four cohorts. PK parameters were calculated by noncompartmental analysis using standard equations.”
Raw bioanalytical data were received from Nuvisan on Jun. 30, 2023. […] Specifically, area under the plasma concentration versus time curve (AUC) was calculated using the trapezoid rule. Maximal plasma concentration (Cmax) and time of maximal plasma concentration (Tmax) were taken directly from the data. […]

Molecule `CC1(Cc2ccccc2)COc2cc(C(=O)N3CCCCC3)ccc21` (stereo not drawn) [NTRX-07, 3-benzyl-3-methyl-2,3-dihydrobenzofuran-6-carboxylic acid-piperidine amide] has a Cmax (human, plasma, po, 90 mg, Cohort D AD patients, 90 mg QD oral, Day 7, mean ± SD, read-out: Average of Cmax) of 240 ± 38 ng/mL, a Tmax (human, plasma, po, 90 mg, Cohort D AD patients, 90 mg QD oral, Day 7, mean ± SD, read-out: Average of Tmax) of 1.1 ± 0.5 h and a Vd/F (human, plasma, po, 90 mg, Cohort D AD patients, 90 mg QD oral, Day 7, mean ± SD, read-out: Average of Vd/F) of 384 ± 69 L. It also gave an AUC over 24 h (AUC0-24) (human, plasma, po, 90 mg, Table 14: Cohort C, 90 mg QD oral, Day 1, mean ± S.D.) of 1270 ± 509 ng·h/mL, a Cmax (human, plasma, po, 90 mg, Table 14: Cohort C, 90 mg QD oral, Day 1, mean ± S.D., read-out: Cmax) of 400 ± 202 ng/mL and a Tmax (human, plasma, po, 90 mg, Table 14: Cohort C, 90 mg QD oral, Day 1, mean ± S.D., read-out: Tmax) of 2.3 ± 2.2 h. It also gave a Vd/F (human, plasma, po, 90 mg, Table 14: Cohort C, 90 mg QD oral, Day 1, mean ± S.D., read-out: Vd/F) of 337 ± 316 L, an AUC over 24 h (AUC0-24) (human, plasma, po, 90 mg, Table 15: Cohort C, 90 mg QD oral, Day 7, mean ± S.D.) of 741 ± 357 ng·h/mL and a Cmax (human, plasma, po, 90 mg, Table 15: Cohort C, 90 mg QD oral, Day 7, mean ± S.D., read-out: Cmax) of 189 ± 95 ng/mL. It also gave a Tmax (human, plasma, po, 90 mg, Table 15: Cohort C, 90 mg QD oral, Day 7, mean ± S.D., read-out: Tmax) of 1.3 ± 1 h, a Vd/F (human, plasma, po, 90 mg, Table 15: Cohort C, 90 mg QD oral, Day 7, mean ± S.D., read-out: Vd/F) of 568 ± 231 L and an AUC(0-t) (human, plasma, po, 90 mg, Table 16: Cohort D (AD), 90 mg QD oral, Day 1, mean ± S.D., read-out: AUClast) of 1560 ± 605 ng·h/mL. It also gave a Cmax (human, plasma, po, 90 mg, Table 16: Cohort D (AD), 90 mg QD oral, Day 1, mean ± S.D., read-out: Cmax) of 478 ± 154 ng/mL, a Tmax (human, plasma, po, 90 mg, Table 16: Cohort D (AD), 90 mg QD oral, Day 1, mean ± S.D., read-out: Tmax) of 1.1 ± 0.6 h and a Vd/F (human, plasma, po, 90 mg, Table 16: Cohort D (AD), 90 mg QD oral, Day 1, mean ± S.D., read-out: Vd/F) of 211 ± 90 L. It also gave an AUC over 24 h (AUC0-24) (human, plasma, po, 90 mg, Table 17: Cohort D (AD), 90 mg QD oral, Day 7, individual subjects) of 623 ng·h/mL, a Cmax (human, plasma, po, 90 mg, Table 17: Cohort D (AD), 90 mg QD oral, Day 7, individual subjects, read-out: Cmax) of 286 ng/mL and a Vd/F (human, plasma, po, 90 mg, Table 17: Cohort D (AD), 90 mg QD oral, Day 7, individual subjects, read-out: Vd/F) of 315 L. For the same molecule, the AUC over 24 h (AUC0-24) (human, plasma, po, 90 mg, Table 17: Cohort D (AD), 90 mg QD oral, Day 7, mean ± S.D.) was 806 ± 196 ng·h/mL, the Cmax (human, plasma, po, 90 mg, Table 17: Cohort D (AD), 90 mg QD oral, Day 7, mean ± S.D., read-out: Cmax) was 240 ± 38 ng/mL and the Tmax (human, plasma, po, 90 mg, Table 17: Cohort D (AD), 90 mg QD oral, Day 7, mean ± S.D., read-out: Tmax) was 1.1 ± 0.5 h. For the same molecule, the Vd/F (human, plasma, po, 90 mg, Table 17: Cohort D (AD), 90 mg QD oral, Day 7, mean ± S.D., read-out: Vd/F) was 384 ± 69 L, the AUC over 24 h (AUC0-24) (human, plasma, po, 120 mg, Table 24 (interim): Cohort B, 120 mg SDD (30 mg NTRX-07) QD oral, Day 1, mean ± S.D.) was 323 ± 213 ng·h/mL and the Cmax (human, plasma, po, 120 mg, Table 24 (interim): Cohort B, 120 mg SDD (30 mg NTRX-07) QD oral, Day 1, mean ± S.D., read-out: Cmax) was 109 ± 57.8 ng/mL. The Tmax (human, plasma, po, 120 mg, Table 24 (interim): Cohort B, 120 mg SDD (30 mg NTRX-07) QD oral, Day 1, mean ± S.D., read-out: Tmax) was 0.9 ± 0.6 h, the Vd/F (human, plasma, po, 120 mg, Table 24 (interim): Cohort B, 120 mg SDD (30 mg NTRX-07) QD oral, Day 1, mean ± S.D., read-out: Vd/F) was 1340 ± 750 L and the Tmax (human, plasma, po, 120 mg, Table 25 (interim): Cohort B, 120 mg SDD (30 mg NTRX-07) QD oral, Day 7, individual subjects, read-out: Tmax) was 0.5 h. It also gave an AUC over 24 h (AUC0-24) (human, plasma, po, 120 mg, Table 25 (interim): Cohort B, 120 mg SDD (30 mg NTRX-07) QD oral, Day 7, mean ± S.D.) of 214 ± 191 ng·h/mL, a Cmax (human, plasma, po, 120 mg, Table 25 (interim): Cohort B, 120 mg SDD (30 mg NTRX-07) QD oral, Day 7, mean ± S.D., read-out: Cmax) of 120 ± 79.2 ng/mL and a Tmax (human, plasma, po, 120 mg, Table 25 (interim): Cohort B, 120 mg SDD (30 mg NTRX-07) QD oral, Day 7, mean ± S.D., read-out: Tmax) of 0.5 h. The Vd/F (human, plasma, po, 120 mg, Table 25 (interim): Cohort B, 120 mg SDD (30 mg NTRX-07) QD oral, Day 7, mean ± S.D., read-out: Vd/F) was 1240 ± 936 L, the AUC over 24 h (AUC0-24) (human, plasma, po, 360 mg SDD, Table 29 (interim): Cohort C, 360 mg SDD (90 mg NTRX-07) QD oral, Day 1, mean ± S.D.) was 1290 ± 541 ng·h/mL and the Cmax (human, plasma, po, 360 mg SDD, Table 29 (interim): Cohort C, 360 mg SDD (90 mg NTRX-07) QD oral, Day 1, mean ± S.D., read-out: Cmax) was 439 ± 236 ng/mL. The Tmax (human, plasma, po, 360 mg SDD, Table 29 (interim): Cohort C, 360 mg SDD (90 mg NTRX-07) QD oral, Day 1, mean ± S.D., read-out: Tmax) was 2.3 ± 2.8 h, the Vd/F (human, plasma, po, 360 mg SDD, Table 29 (interim): Cohort C, 360 mg SDD (90 mg NTRX-07) QD oral, Day 1, mean ± S.D., read-out: Vd/F) was 1300 ± 1290 L and the AUC over 24 h (AUC0-24) (human, plasma, po, 360 mg SDD, Table 30 (interim): Cohort C, 360 mg SDD (90 mg NTRX-07) QD oral, Day 7, mean ± S.D.) was 747 ± 349 ng·h/mL. The Cmax (human, plasma, po, 360 mg SDD, Table 30 (interim): Cohort C, 360 mg SDD (90 mg NTRX-07) QD oral, Day 7, mean ± S.D., read-out: Cmax) was 189 ± 95 ng/mL, the Tmax (human, plasma, po, 360 mg SDD, Table 30 (interim): Cohort C, 360 mg SDD (90 mg NTRX-07) QD oral, Day 7, mean ± S.D., read-out: Tmax) was 1.3 ± 1 h and the Vd/F (human, plasma, po, 360 mg SDD, Table 30 (interim): Cohort C, 360 mg SDD (90 mg NTRX-07) QD oral, Day 7, mean ± S.D., read-out: Vd/F) was 2270 ± 923 L. The AUC over 24 h (AUC0-24) (human, plasma, po, 360 mg SDD, Table 34 (interim): Cohort D (AD), 360 mg SDD (90 mg NTRX-07) QD oral, Day 1, mean ± S.D.) was 1560 ± 329 ng·h/mL, the Cmax (human, plasma, po, 360 mg SDD, Table 34 (interim): Cohort D (AD), 360 mg SDD (90 mg NTRX-07) QD oral, Day 1, mean ± S.D., read-out: Cmax) was 478 ± 154 ng/mL and the Tmax (human, plasma, po, 360 mg SDD, Table 34 (interim): Cohort D (AD), 360 mg SDD (90 mg NTRX-07) QD oral, Day 1, mean ± S.D., read-out: Tmax) was 1.1 ± 0.6 h. The Vd/F (human, plasma, po, 360 mg SDD, Table 34 (interim): Cohort D (AD), 360 mg SDD (90 mg NTRX-07) QD oral, Day 1, mean ± S.D., read-out: Vd/F) was 845 ± 360 L, the AUC over 24 h (AUC0-24) (human, plasma, po, 360 mg SDD, Table 35 (interim): Cohort D (AD), 360 mg SDD (90 mg NTRX-07) QD oral, Day 7, individual subjects) was 1010 ng·h/mL and the Cmax (human, plasma, po, 360 mg SDD, Table 35 (interim): Cohort D (AD), 360 mg SDD (90 mg NTRX-07) QD oral, Day 7, individual subjects, read-out: Cmax) was 286 ng/mL. For the same molecule, the Vd/F (human, plasma, po, 360 mg SDD, Table 35 (interim): Cohort D (AD), 360 mg SDD (90 mg NTRX-07) QD oral, Day 7, individual subjects, read-out: Vd/F) was 1260 L, the AUC over 24 h (AUC0-24) (human, plasma, po, 360 mg SDD, Table 35 (interim): Cohort D (AD), 360 mg SDD (90 mg NTRX-07) QD oral, Day 7, mean ± S.D.) was 1430 ± 329 ng·h/mL and the Cmax (human, plasma, po, 360 mg SDD, Table 35 (interim): Cohort D (AD), 360 mg SDD (90 mg NTRX-07) QD oral, Day 7, mean ± S.D., read-out: Cmax) was 240 ± 38 ng/mL. For the same molecule, the Tmax (human, plasma, po, 360 mg SDD, Table 35 (interim): Cohort D (AD), 360 mg SDD (90 mg NTRX-07) QD oral, Day 7, mean ± S.D., read-out: Tmax) was 1.1 ± 0.5 h, the Vd/F (human, plasma, po, 360 mg SDD, Table 35 (interim): Cohort D (AD), 360 mg SDD (90 mg NTRX-07) QD oral, Day 7, mean ± S.D., read-out: Vd/F) was 1540 ± 278 L and the “Plasma levels / exposure Day 7 vs Day 1” value (repeat QD dosing, 90 mg cohorts) was “A decrease of levels at Day 7 was observed; also recorded: exposure is decreasing rather than increasing over time”.
